Where only a bound is given, the exact number is not on record here.

Data set [1] has as its target T1, malate dehydrogenase (MDH) (Sus scrofa, UniProt P00346).
T1 construct: malate dehydrogenase (porcine heart) were from Sigma Aldrich; purchased Sigma Aldrich; host or cells: porcine heart
T1 sequence (P00346 25-338): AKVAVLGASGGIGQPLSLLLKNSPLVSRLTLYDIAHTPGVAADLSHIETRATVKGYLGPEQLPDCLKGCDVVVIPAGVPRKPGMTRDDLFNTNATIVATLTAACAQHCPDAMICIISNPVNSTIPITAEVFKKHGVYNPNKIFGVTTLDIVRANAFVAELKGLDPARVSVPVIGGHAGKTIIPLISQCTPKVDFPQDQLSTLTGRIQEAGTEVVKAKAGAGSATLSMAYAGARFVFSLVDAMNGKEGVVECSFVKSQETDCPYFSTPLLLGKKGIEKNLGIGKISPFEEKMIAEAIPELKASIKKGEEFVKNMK
The experiment in a line: 1H NMR STD (saturation transfer difference) binding assay, MDH. On the set-up: species or system porcine. Conditions: CRAA 3 mM. The method, then: ^1H NMR STD (saturation transfer difference) spectra for CRAA binding to either malate dehydrogenase (MDH) (FIG. 13A) or glutamate dehydrogenase (FIG. 13B) establishes that the CRAA scaffold binds proteins that were identified using the proteomic assay, thereby validing the method for identifying non-target proteins. Glutamate dehydrogenase (bovine liver, GDH) and malate dehydrogenase (porcine heart) were from Sigma Aldrich. Both experiments were performed on a 600 MHz Varian NMR system at 25° C. using the cyclonecyclnoe pulse sequence (a steady state NOE experiment) with 256 scans. On and off resonance irradiations were at 0.5 and −11 ppm respectively, performed for 4 seconds each. […] (See FIG. 13). In both cases, CRAA was present at 3 mM and the binding study was done in a 25 mM phosphate buffer at pH 7.6 with 250 ug GDH or 166 ug MDH in a total volume of 0.6 mLs. The use of STD assays in functional proteomic binding studies has been described (Yao and Sem, FEBS Lett. (2005) 579, 661-666, the content of which is incorporated herein by reference in its entirety). To verify that binding had occurred in the cofactor binding site, competition studies were also performed (not shown). […] To test this hypothesis, the competition was reversed where 3 mM NADP+ STD signal was monitored before and after adding CRAA (1 mM). […]

A further data set deals with human liver proteome. The experiment in a line: CRAA affinity column target fishing with nanospray-LC/MS/MS, human liver proteome. The class given is binding. The settings on record: elution with free CRAA.
Data set [2] has as its target T2, glutamate dehydrogenase (GDH) (Bos taurus, UniProt P00366).
T2 construct: Glutamate dehydrogenase (bovine liver, GDH); purchased Sigma Aldrich; host or cells: bovine liver
The experiment in a line: 1H NMR STD (saturation transfer difference) binding assay, GDH. On the set-up: species or system bovine. As for the experimental part: ^1H NMR STD (saturation transfer difference) spectra for CRAA binding to either malate dehydrogenase (MDH) (FIG. 13A) or glutamate dehydrogenase (FIG. 13B) establishes that the CRAA scaffold binds proteins that were identified using the proteomic assay, thereby validing the method for identifying non-target proteins. Glutamate dehydrogenase (bovine liver, GDH) and malate dehydrogenase (porcine heart) were from Sigma Aldrich. Both experiments were performed on a 600 MHz Varian NMR system at 25° C. using the cyclonecyclnoe pulse sequence (a steady state NOE experiment) with 256 scans. On and off resonance irradiations were at 0.5 and −11 ppm respectively, performed for 4 seconds each. […] (See FIG. 13). In both cases, CRAA was present at 3 mM and the binding study was done in a 25 mM phosphate buffer at pH 7.6 with 250 ug GDH or 166 ug MDH in a total volume of 0.6 mLs. The use of STD assays in functional proteomic binding studies has been described (Yao and Sem, FEBS Lett. (2005) 579, 661-666, the content of which is incorporated herein by reference in its entirety). To verify that binding had occurred in the cofactor binding site, competition studies were also performed (not shown). Addition of 1 mM NADH to the MDH sample caused a decrease in STD signal for CRAA (3 mM) of 35%. The analogous competition with GDH (using NADP+ as competitor) produced no change in STD signal for CRAA—which might be due to higher affinity for […]. To test this hypothesis, the competition was reversed where 3 mM NADP+ STD signal was monitored before and after adding CRAA (1 mM). A decrease in the NADP+ STD signal of 50% was now observed, due to CRAA addition.

A further data set concerns KCNQ potassium channel. Conditions: cited from earlier work.
In data set [3] the target is T3, DHPR (dihydrodipicolinate reductase) (Escherichia coli, UniProt P04036).
T3 construct: made in house; host or cells: E. coli (pET11a DHPR expression construct)
Put plainly: Covalent labeling of purified DHPR with NHS-CRAA, with NADH or PDC competitors (SDS-PAGE). The class given is binding, E. coli. The method, then:
FIG. 8. SDS-PAGE gel of DHPR that has been labeled with NHS-CRAA active ester, but in the presence of increasing concentrations of either NADH or PDC (2,6-pyridine dicarboxylic acid) competitors, Lane 1, protein standard; Lanes 2-6, increasing NADH ([…]); Lanes 7-10, increasing PDC (1.1, 2.3, 4.5, 9.1 mM).
2 (NHS-CRAA) uptake into E. coli cells and labeling of DHPR. To assess whether 1 (CRAA) can make it across bacterial cell walls, and therefore whether 1 is a viable scaffold for anti-infective drug design efforts, experiments were performed to determine if its N-hydroxysuccinimide ester, 2 (NHS-CRAA; FIG. 2), could enter E. coli and label intracellular DHPR (dihydrodipicolinate reductase). DHPR is an anti-infective drug target, and is known to bind the CRAA scaffold (1)^21. The NHS-CRAA active ester (2)^35 was synthesized as in FIG. 2. The NHS (N-hydroxysuccinimide) group reacts with amines, and since it is attached to the linker position of 1 (where the acetic acid chain is attached), it should reside at the interface of the NADH and substrate binding sites^21 (FIG. 1), near lysine 163^36 (see FIG. 7). Indeed, DHPR is labeled with the NHS-CRAA (2) active ester, based on imaging of an SDS-PAGE gel of labeled protein (FIG. 8). Increasing NADH concentration appears to decrease band intensity while PDC has little effect up to 9 mM. […] Next, to explore whether cell wall penetration occurs, uptake of 2 was measured into E. coli that was expressing E. coli DHPR. Since we have recently shown that the CRAA scaffold (1) is bifunctional, in that it is itself weakly fluorescent^33, protein labeling could be monitored by fluorescence imaging of SDS-PAGE gels of crude cell extracts. […] That there is more labeling in cells expressing DHPR is evident based on the more intense color for cells expressing DHPR (FIG. 3c) and on fluorescence images of the cells (FIG. 3d).

Data set [4] relates to E. coli cells overexpressing DHPR. Put plainly: NHS-CRAA in-cell uptake and labeling study.
Description: E. coli containing the pET11a DHPR expression construct was inoculated into 30 mL LB culture medium, growing overnight at 37° C., 225 rpm. The next day, 10 mL of this culture was added to two flasks (flasks A and B, each containing 800 mL LB medium with 50 μg/mL carbenicillin). The OD600 was monitored until it reached ˜1.0. To flask A was added 0.8 mL of a 0.4 M IPTG stock to start induction^58. Flask B was used as a control without induction. 5 hours later, cells were collected (centrifuged 10 minutes at 4,000 rpm) and washed once with 100 mM PBS buffer, pH 7.4. The Cells were then suspended in 100 mL of pH 7.4 PBS buffer (8 g NaCl, 0.2 g KCl, 1.44 g Na2HPO4, 0.24 g KH2PO4 in 1.0 L) and incubated for 5 minutes. Then, 1 mL NHS-CRAA ester (2) was added to each flask and incubated at room temperature for about 30 minutes (FIG. 3a). […] The gel was fluorescently imaged on a Kodak Image Station, to selectively detect 1 which has λmax for absorbance and emission at 465 nm and 535 nm^37. Cells were fluorescently imaged in PBS buffer after the wash (before lysis) using 495 nm/520 nm excitation/emission filters on the fluorescence microscope. Complementary fluorescence and bright field images may be shifted slightly relative to each other, because of bacterial motion between image captures. […]
Another data set relates to ERG potassium channels. The settings on record: ERG channels expressed by neurons; cited from earlier work.
The target of data set [5] is KCNQ1 and minK (KCNE1) potassium channel (Homo sapiens, UniProt P51787). Conditions: cardiac delayed rectifier potassium channel of heart muscle cells; read-out: KD for block of the KCNQ1/minK (KCNE1) channel; cited from earlier work.
Data set [6] deals with potassium currents IA, IK, IAHP, IQ, IL. Conditions: IQ and IL currents; cited from earlier work.

T2 sequence (P00366 58-558): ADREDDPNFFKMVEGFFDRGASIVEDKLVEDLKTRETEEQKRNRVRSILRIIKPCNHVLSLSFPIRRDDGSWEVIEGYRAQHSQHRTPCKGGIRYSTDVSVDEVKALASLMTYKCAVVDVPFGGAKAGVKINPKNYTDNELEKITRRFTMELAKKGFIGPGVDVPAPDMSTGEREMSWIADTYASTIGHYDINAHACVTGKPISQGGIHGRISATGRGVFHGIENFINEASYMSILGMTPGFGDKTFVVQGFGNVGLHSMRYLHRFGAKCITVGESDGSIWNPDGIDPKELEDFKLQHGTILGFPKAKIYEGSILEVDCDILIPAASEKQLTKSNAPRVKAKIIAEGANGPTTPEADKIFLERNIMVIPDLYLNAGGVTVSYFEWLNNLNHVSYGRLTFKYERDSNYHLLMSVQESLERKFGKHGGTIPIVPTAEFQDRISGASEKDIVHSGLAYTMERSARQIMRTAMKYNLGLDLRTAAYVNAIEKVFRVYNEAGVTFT
T3 sequence (P04036 whole entry): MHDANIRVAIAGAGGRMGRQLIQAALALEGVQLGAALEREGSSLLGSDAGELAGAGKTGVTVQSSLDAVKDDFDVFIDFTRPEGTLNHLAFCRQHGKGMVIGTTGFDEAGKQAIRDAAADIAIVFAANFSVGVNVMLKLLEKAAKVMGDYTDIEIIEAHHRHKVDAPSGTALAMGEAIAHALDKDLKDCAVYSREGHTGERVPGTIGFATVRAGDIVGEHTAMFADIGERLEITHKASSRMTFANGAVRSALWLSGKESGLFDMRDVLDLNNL
Sequence of KCNQ1 and minK (KCNE1) potassium channel (P51787 whole entry): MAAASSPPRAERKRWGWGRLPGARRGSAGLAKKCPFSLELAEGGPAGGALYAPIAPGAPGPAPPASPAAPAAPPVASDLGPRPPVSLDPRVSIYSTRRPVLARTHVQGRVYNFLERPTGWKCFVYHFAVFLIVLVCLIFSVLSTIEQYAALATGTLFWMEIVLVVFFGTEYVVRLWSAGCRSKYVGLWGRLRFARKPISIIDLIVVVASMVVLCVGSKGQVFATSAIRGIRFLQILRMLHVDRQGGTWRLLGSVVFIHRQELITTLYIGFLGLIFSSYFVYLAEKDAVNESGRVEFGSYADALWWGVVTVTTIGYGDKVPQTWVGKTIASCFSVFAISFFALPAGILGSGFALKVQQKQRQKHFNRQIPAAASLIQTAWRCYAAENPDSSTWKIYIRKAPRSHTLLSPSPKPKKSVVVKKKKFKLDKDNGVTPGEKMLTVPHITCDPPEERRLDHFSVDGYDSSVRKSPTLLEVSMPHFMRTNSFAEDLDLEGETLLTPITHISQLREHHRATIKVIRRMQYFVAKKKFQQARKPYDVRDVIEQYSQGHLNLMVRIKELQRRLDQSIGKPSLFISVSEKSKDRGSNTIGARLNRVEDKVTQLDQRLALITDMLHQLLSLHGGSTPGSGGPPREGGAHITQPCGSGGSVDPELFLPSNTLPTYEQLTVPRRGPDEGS

Regarding `O=C(O)CN1C(=O)C(=Cc2ccc(O)c(O)c2)SC1=S` [CRAA, 5-[(3,4-dihydroxyphenyl)methylene]-4-oxo-2-thioxo-3-thiazolidineacetic acid], in data set [1] (166 ug MDH, 25 mM phosphate pH 7.6, 25° C.), the “binding to malate dehydrogenase by STD difference spectrum” value is listed as “binds to protein”. For the same compound, in [1] (1 mM NADH competitor, MDH), the “decrease in STD signal for CRAA on addition of NADH” value is 35%. Besides, in the data set on human liver proteome, the “share of captured proteins that are NAD(P)(H)-binding proteins” value is listed as over 50%. The “binding to glutamate dehydrogenase by STD difference spectrum” value in [2] (CRAA 3 mM, 250 ug GDH, 25 mM phosphate pH 7.6, 25° C.) is reported as “binds to protein”. The “decrease in the NADP+ STD signal due to CRAA addition” value in data set [2] (GDH, 3 mM NADP+, CRAA 1 mM) came to 50%. For the same compound, the “change in STD signal for CRAA with NADP+ as competitor” value in data set [2] (GDH, NADP+ competitor) was “no change”.
Consider `O=C1c2ccccc2C(Cc2ccnc(F)c2)(Cc2ccnc(F)c2)c2ccccc21` [DMP543, 10, 10-Bis[(2-fluoro-4-pyridinyl)methyl]-9(10H)-anthracenone], for which, in the data set with KCNQ potassium channel, the “effect on the KCNQ potassium channel” value is given as “activate”.
For `O=C(CN1C(=O)C(=Cc2ccc(O)c(O)c2)SC1=S)ON1C(=O)CCC1=O` [NHS-CRAA, 5-[(3,4-dihydroxyphenyl)methylene]-4-oxo-2-thioxo-3-thiazolidineacetic N-hydroxysuccinimide ester], the “effect of PDC on labeling of DHPR” value in [3] (PDC up to 9 mM) is recorded as “little effect”. In data set [3] (imaging of SDS-PAGE gel), the “covalent labeling of purified DHPR” value was “labeled”. Moreover, the “effect of NADH on labeling of DHPR” value in data set [3] (increasing NADH concentration) is “partially blocked”. In addition, the “crossing of the bacterial cell wall” value in [4] (intact E. coli cells overexpressing DHPR) is given as “can cross the cell wall”. In data set [4] (intact cells overexpressing DHPR, about 30 minutes, room temperature, fluorescence imaging of SDS-PAGE gel), the “labeling of DHPR within intact E. coli cells” value is recorded as “significant labeling”.
`O=C1c2ccccc2C(Cc2ccncc2)(Cc2ccncc2)c2ccccc21` [XE991]: the “effect on ERG potassium channels” value in the data set with ERG potassium channels was “binds to and blocks the activity”. The Kd in data set [5] was 11.1 ± 1.8 µM.
As for `O=C1N(c2ccccc2)c2ccccc2C1(Cc1ccncc1)Cc1ccncc1` [linopirdine], the “concentration at which several other potassium currents are blocked” value in data set [6] is recorded as “above 10 μM”.

Values taken from patent US20100304998A1, “Chemical Proteomic Assay for Optimizing Drug Binding to Target Proteins” (MARQUETTE UNIVERSITY, priority 2009, published 2010).
